The target of data set [1] is Plasmin (Homo sapiens, UniProt P00747). The data set is described as follows: Anti-plasmin activity (hydrolysis of TAME). The format is biochemical. The settings on record: molar concentration inhibiting 50% of TAME hydrolysis; read-out: id50, Plasmin. The procedure:
(§1) The anti-trypsin, anti-plasmin, anti-kallikrein and anti-thrombin activities were determined according to the method of Muramatsu et al. [M. Muramatsu, T. Onishi, S. Makino, Y. Hayashi and S. Fujii, J. of Biochem., 58, 214 (1965)]. The data summarized in Table 1 are expressed in terms of molar concentration (id50) of the test compound which inhibits 50% of the activity of each enzyme to hydrolyze TAME (tosylarginine methyl ester). The compound No. corresponds to the compound number shown in Examples.

Data set [2] addresses T1, C1s (Homo sapiens, UniProt P09871).
T1 sequence (P09871 438-688 limits assumed): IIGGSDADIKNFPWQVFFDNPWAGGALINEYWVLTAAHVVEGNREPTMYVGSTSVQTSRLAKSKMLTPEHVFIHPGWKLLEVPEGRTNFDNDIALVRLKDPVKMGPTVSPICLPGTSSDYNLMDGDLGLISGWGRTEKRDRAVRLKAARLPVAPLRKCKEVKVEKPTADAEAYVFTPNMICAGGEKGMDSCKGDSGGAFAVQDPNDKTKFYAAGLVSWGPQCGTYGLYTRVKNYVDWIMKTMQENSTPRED
T1 sequence (P09871 16-437 partner limits assumed): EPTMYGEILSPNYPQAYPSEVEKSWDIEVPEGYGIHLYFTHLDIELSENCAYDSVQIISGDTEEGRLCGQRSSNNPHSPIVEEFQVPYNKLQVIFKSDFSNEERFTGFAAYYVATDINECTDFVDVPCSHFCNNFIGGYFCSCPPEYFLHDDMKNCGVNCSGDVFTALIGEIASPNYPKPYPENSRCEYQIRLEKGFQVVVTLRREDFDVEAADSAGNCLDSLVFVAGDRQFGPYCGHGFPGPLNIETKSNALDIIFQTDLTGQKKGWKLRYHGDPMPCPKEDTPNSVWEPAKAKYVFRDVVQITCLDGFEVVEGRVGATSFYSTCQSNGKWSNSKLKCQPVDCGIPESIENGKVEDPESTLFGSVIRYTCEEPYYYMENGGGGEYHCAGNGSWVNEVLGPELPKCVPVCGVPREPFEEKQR
The data set is described as follows: Anti-C1 esterase activity, C1s (hydrolysis of ATEE). The format is biochemical. The protocol: The anti-C1 esterase (C1r, C1s) activity was determined according to the method of Okamura et al. [K. Okamura, M. Muramatsu and B. Fujii, Biochem. Biophys. Acta, 295, 252-257 (1973)]. The inhibition of complement mediated hemolysis was determined according to the method of Baker et al. [B. R. Baker and E. H. Erickson, J. Med. Chem., 12, 408-414 (1969)]. The figures in Table 2 have the following meanings:
C1s: Molar concentration of the test compound which inhibits 50% of the ability of C1s to hydrolyse ATEE (acetyltyrosin ethyl ester).

Data set [3] addresses T2, C1r (Homo sapiens, UniProt P00736).
T2 sequence (P00736 464-705 limits assumed): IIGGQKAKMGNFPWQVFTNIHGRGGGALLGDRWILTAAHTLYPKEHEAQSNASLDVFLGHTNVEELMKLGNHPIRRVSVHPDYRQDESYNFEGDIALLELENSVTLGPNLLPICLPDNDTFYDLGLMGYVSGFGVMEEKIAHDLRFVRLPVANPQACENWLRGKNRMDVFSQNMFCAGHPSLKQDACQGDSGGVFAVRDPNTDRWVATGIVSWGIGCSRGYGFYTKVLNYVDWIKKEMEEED
T2 sequence (P00736 18-463 partner limits assumed): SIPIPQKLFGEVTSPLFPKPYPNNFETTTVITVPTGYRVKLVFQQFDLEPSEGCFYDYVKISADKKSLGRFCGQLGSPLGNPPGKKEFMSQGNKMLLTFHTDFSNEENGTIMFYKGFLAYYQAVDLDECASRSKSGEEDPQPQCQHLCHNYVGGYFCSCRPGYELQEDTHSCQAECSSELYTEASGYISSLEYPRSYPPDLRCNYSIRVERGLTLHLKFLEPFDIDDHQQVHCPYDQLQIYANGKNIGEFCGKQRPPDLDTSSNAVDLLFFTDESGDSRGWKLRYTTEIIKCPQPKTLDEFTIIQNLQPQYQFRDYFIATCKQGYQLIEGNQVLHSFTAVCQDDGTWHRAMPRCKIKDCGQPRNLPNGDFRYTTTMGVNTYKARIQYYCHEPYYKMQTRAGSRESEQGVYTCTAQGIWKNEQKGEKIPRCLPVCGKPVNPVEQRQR
Put plainly: Anti-C1 esterase activity, C1r (hydrolysis of AAME). The format is biochemical. The conditions noted are these: molar concentration inhibiting 50% of AAME hydrolysis; read-out: Anti-C1 activity, C1r id50. The procedure: The anti-C1 esterase (C1r, C1s) activity was determined according to the method of Okamura et al. [K. Okamura, M. Muramatsu and B. Fujii, Biochem. Biophys. […] The figures in Table 2 have the following meanings:
C1r: Molar concentration of the test compound which inhibits 50% of the ability of C1r to hydrolyse AAME (acetylarginin methyl ester) (id50).

Data set [4] concerns the target Thrombin (Bos taurus, UniProt P00735). The data set is described as follows: Anti-thrombin activity (hydrolysis of TAME). The format is biochemical. The procedure:
as §1

Data set [5] concerns complement. Put plainly: Inhibition of complement mediated hemolysis. The format is cell-based. The settings on record: read-out: Inhibition of complement mediated hemolysis (%).
Method: The complement mediated hemolysis is widely used as a means to determine the titration of complement. The principle of this method is based on the fact that hemolysis is caused by the activation of complement, when the latter is added to a complex (immune complex) of erythrocytes and the autibody thereof. The degree of hemolysis varies in proportion to the amount of complement added. Therefore, when a known amount of complement admixed with a C1 esterase inhibitor is used, the hemolysis must be suppressed in proportion to the inhibitory activity.
The anti-C1 esterase (C1r, C1s) activity was determined according to the method of Okamura et al. [K. Okamura, M. Muramatsu and B. Fujii, Biochem. Biophys. […] The inhibition of complement mediated hemolysis was determined according to the method of Baker et al. [B. R. Baker and E. H. Erickson, J. Med. Chem., 12, 408-414 (1969)].
Data set [6] deals with T3, Trypsin (Bos taurus, UniProt P00760).
T3 sequence (P00760 24-246): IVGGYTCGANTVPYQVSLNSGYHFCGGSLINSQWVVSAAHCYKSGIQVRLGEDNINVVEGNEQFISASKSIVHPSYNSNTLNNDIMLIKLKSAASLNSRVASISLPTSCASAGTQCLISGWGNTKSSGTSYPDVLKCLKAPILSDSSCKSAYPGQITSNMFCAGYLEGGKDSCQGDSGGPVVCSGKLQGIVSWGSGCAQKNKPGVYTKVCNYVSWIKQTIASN
Put plainly: Anti-trypsin activity (hydrolysis of TAME). The format is biochemical. The conditions noted are these: molar concentration inhibiting 50% of TAME hydrolysis; read-out: id50, Trypsin. The protocol:
as §1

The nature of data set [7]: Toxicity, median lethal dose (LD50). The conditions noted are these: in vivo.
Data set [8] relates to Forssman shock. Put plainly: Forssman shock (survival time after hemolysin). The format is in vivo, guinea pig (male Hartlay). The conditions noted are these: for time elapsed until death, average: control average 361 sec. An excerpt: Quite different from other animals, guinea pig has on the surface of its organs a specific antigen called Forssman antigen which specifically reacts with the antibody of sheep erythrocyte. Forssman shock is based on the above principle and is a shock caused by the administration of antibody of sheep erythrocyte to a guinea pig. The Forssman shock was investigated in detail by many researches and it was definitely shown that this shock is a model case where the complement plays the principal part and that the shock is associated with a classical pathway in which the complement system is activated progressively starting from C1. Since the participation of complement in autoimmune diseases has been established, the Forssman shock can be said to be a useful means for testing a drug for autoimmune diseases. A drug effective for the treatment of Forssman shock is useful as a drug of autoimmune diseases. [Anti-trypsin, anti-plasmin, anti-kallikrein and anti-thrombin activities]
The experiment was performed according to the method of I. G. Offerness et al. [Biochem. Pharmacol., 27 (14), 1873-1878 (1978)]. Male Hartlay guinea pig of about 300 g in body weight was used. Each guinea pig of the control group was administered intravenously with 0.5 ml (minimum dose to cause the shock) of hemolysin (commercial hemolysin, 5,000 U as assayed by the method of Ogata) and the time elapsed until death was observed. For the test group, each guinea pig was administered intravenously with the test compound 5 minutes before the administration of hemolysin and the time (second) elapsed until death was observed.

Data set [9] has as its system complement. The conditions noted are these: Y. Takada et al., Immunology 34, 509-515 (1978); cited from earlier work.

The term inhibition denotes the share of the control response that was lost under treatment. A word on the LD50: it is the dose at which mortality reaches 50%.

Structures are written as SMILES. “And” between values parts separate entries of the source, which are not always exact repeats. Equal entries are not always repeated. Where two headings read alike, the source gives them in different places.

Plasmin, sequence (P00747 581-810 limits assumed): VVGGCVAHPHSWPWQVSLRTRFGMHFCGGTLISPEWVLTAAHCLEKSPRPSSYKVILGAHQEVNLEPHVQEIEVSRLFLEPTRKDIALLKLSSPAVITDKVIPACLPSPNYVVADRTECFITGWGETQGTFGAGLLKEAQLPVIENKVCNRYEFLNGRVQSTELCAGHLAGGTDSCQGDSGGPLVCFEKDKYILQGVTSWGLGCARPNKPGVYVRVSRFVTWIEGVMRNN
Plasmin, sequence (P00747 97-580 partner limits assumed): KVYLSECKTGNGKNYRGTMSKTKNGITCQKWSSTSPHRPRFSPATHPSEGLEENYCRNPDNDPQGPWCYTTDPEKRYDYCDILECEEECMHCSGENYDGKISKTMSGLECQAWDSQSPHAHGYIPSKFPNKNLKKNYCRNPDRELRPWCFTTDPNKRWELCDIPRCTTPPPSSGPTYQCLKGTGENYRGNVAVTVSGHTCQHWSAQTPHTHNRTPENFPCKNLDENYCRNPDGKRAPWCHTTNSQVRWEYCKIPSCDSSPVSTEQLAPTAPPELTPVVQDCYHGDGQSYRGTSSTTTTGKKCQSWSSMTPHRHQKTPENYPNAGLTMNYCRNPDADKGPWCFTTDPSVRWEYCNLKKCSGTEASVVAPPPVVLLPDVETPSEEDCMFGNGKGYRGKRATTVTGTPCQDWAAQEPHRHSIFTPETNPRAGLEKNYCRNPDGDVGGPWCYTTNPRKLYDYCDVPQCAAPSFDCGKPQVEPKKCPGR

Regarding `N=C(N)C=Cc1ccc(OC(=O)c2ccccc2)cc1` [Compound 12, 4-(β-amidinoethenyl)-phenyl benzoate], the IC50 in [1] came to 2 µM; in data set [2], 0.3 µM; in data set [3], 0.8 µM; in data set [4], 3 µM; in data set [6] it was 0.6 µM. The inhibition at 100 µM in data set [5] (1 × 10^-4 M) came to 100%. Further, the inhibition at 10 µM in data set [5] (1 × 10^-5 M) came out at 100%. Further, the inhibition at 1 µM in data set [5] (1 × 10^-6 M) amounted to 54%. The inhibition at 0.1 µM in [5] (1 × 10^-7 M) turned out to be 11%.
Consider `N=C(N)C=Cc1ccc(OC(=O)c2ccc(NC(=N)N)cc2)cc1` [Compound 35, 4-(β-amidinoethenyl)phenyl 4-guanidinobenzoate], for which the IC50 in data set [1] was found to be 0.9 µM; in data set [2] (molar concentration inhibiting 50% of ATEE hydrolysis, read-out: Anti-C1 activity, C1s id50), 0.3 µM; in [3] it was 4 µM; in [4], 1 µM; in data set [6], 0.02 µM. Also, the LD50 was determined as 133 mg/kg in [7] (ip) and 1200 mg/kg in data set [7] (po). Also, the “time elapsed until death” value in [8] (1 mg/kg i.v. 5 minutes before hemolysin, individual animals 1-4) is 490 s and 375 s and 255 s and 285 s; in data set [8] (3 mg/kg i.v. 5 minutes before hemolysin, individual animals), 365 s and 4000 s and 690 s. The “time elapsed until death, average” value in data set [8] (1 mg/kg i.v.) was found to be 351 s; in data set [8] (3 mg/kg i.v.), 528 s. In addition, the “survival of individual animal” value in data set [8] (3 mg/kg i.v. 5 minutes before hemolysin, animal 2) is recorded as “Survival”. Further, the inhibition at 0.1 µM in [5] was determined as 46%. Besides, the inhibition at 1 µM in [5] came to 97%. Also, the inhibition at 10 µM in data set [5] was found to be 100%. In addition, the inhibition at 100 µM in [5] is 100%.
In the case of `CC(=O)N[C@@H](CC(C)C)C(=O)N[C@@H](CC(C)C)C(=O)N[C@H](C=O)CCCNC(=N)N` [Leupeptin, reference compound], the “anti-complement activity (in words)” value in data set [9] is reported as “anti-complement activity”. This molecule gave an IC50 in data set [2] of 20 µM. Moreover, in data set [3], the IC50 stood at 200 µM. In data set [5], the inhibition at 0.1 µM was 0%, the inhibition at 1 µM was determined as 0%, the inhibition at 10 µM came to 52% and the inhibition at 100 µM was determined as 97%.

The values are drawn from patent US4490388A, “Amidine compound and anticomplement agent comprising same” (Torii & Co., Ltd., priority 1981, dated 1984).
